Source: patent US20070142317A1, “Topical composition for treatment of skin disorders” (QLT USA, Inc., priority 2003, published 2007)

Experiments:
U-937 cells [1] = experiment: Toxicity to U-937 cells (summary in Example 29); assay type: cell-based
U-937 cells [2] = experiment: Cytokine secretion by ELISA (Example 31); assay type: cell-based; conditions: for Cytokine Secretion IL-6 pg/ml Mean of 3 Replicates: drug 500 μM, LPS-activated cells
Description: (§1) In a search for a topical agent that can locally deplete levels of T-cells in the skin, apoptotic compounds were evaluated for their mechanisms of action. The ability that […] induce apoptosis by the same mechanisms was examined by cytokine secretion. […] Caspase-3 and cytokine (IL-2, IL-6, TNF, and IFN-γ) levels were determined and compared to controls at 23 and 46 hours. FdA was incorporated to evaluate the effect of the halogen group and Ara-C for its overlapping mechanisms of action. […] At the end of the treatment period, the cells were harvested and Caspase-3 induction was determined using a flow-cytometry-based method to quantify the percentage of cells that induced Caspase-3. The level of apoptosis is expressed as “% FITC shift”. Cytokine secretion (IL-2, IL-6, TNF, and IFN-γ) was measured at the same time by ELISA and is expressed in pg/mL. […]

U937 monocytoid cells [3] = experiment: TUNEL assay, dAd, adenosine and adenine dose ranging (Example 24); assay type: cell-based; conditions: 2 days, no dCF
Description: U937 monocytoid cells were cultured in the presence of dAd at various concentrations of dAd (0, 50, 75, 100, 250 and 1000 micromoles/liter). The cells were incubated in dAd for 2 days. At the end of the treatment period, the cells were harvested for analysis by a TUNEL assay, a flow-cytometry-based method to quantify the percentage of cells that have undergone apoptosis. The level of apoptosis expressed as “% FITC shift”. The level of cell cycle arrest is expressed as “% PI shift”. As a positive control, the cells were exposed to 5 mM camptothecin for 2 days.

U937 monocytoid cells [4] = experiment: TUNEL assay, dAd added at different times after dCF wash-out (Example 22); assay type: cell-based; conditions: dCF 0 μM 2 days, wash, 2 more days
Jurkat cells [5] = experiment: Cytokine secretion by ELISA (Example 31); assay type: cell-based; conditions: for Cytokine Secretion IL-2 pg/ml Mean of 3 Replicates: PHA-activated cells
Description: In a search for a topical agent that can locally deplete levels of T-cells in the skin, apoptotic compounds were evaluated for their mechanisms of action. The ability that […] induce apoptosis by the same mechanisms was examined by cytokine secretion. […] At the end of the treatment period, the cells were harvested and Caspase-3 induction was determined using a flow-cytometry-based method to quantify the percentage of cells that induced Caspase-3. The level of apoptosis is expressed as “% FITC shift”. Cytokine secretion (IL-2, IL-6, TNF, and IFN-γ) was measured at the same time by ELISA and is expressed in pg/mL.

[6] = tested on: monocytes and lymphocytes; experiment: Toxicity of dAdo to monocytes and lymphocytes; assay type: cell-based
U937 monocytoid cells [7] = experiment: TUNEL assay, simultaneous exposure to dCF and dAd (Example 22); assay type: cell-based
Description: Methods Simultaneous Exposure—U937 monocytoid cells were cultured in the presence of 0, 1, 2.5, 10, 20, 50, 100, 150, 200, and 250 μM dAdo for 2 days. […] At the end of the treatment period, the cells were harvested for analysis by a TUNEL assay, a flow-cytometry-based method to quantify the percentage of cells that have undergone apoptosis. The level of apoptosis is expressed as “% FITC shift”. As a positive control, the cells were exposed to 5 mM camptothecin for 2 days.

[8] = Calculated concentration in the skin assuming 7% penetration
U-937 cells [9] = experiment: Caspase-3 induction by flow cytometry (Example 31); assay type: cell-based; conditions: drug 500 μM, LPS-activated cells
Description: as §1

Jurkat cells [10] = experiment: Caspase-3 induction by flow cytometry (Example 31); assay type: cell-based; conditions: drug 500 μM, PHA-activated cells
Description: as §1

Jurkat T cells = experiment: TUNEL apoptosis assay, sequential exposure to dCF then dAd (Example 21); assay type: cell-based; conditions: no dCF (0 uM)
Description: (§2) Thus, it is hypothesized that the sequential exposure of the cells to dCF, followed by deoxyadenosine (dAd) will lead to greater levels of apoptosis than dCF alone. […] The cells were then incubated in dAd for 2 more days. At the end of the treatment period, the cells were harvested for analysis by a TUNEL assay, a flow-cytometry-based method to quantify the percentage of cells that have undergone apoptosis. The level of apoptosis is expressed as “% FITC shift”. As a positive control, the cells were exposed to 5 mM camptothecin for 2 days.

U937 monocytoid cells [11] = experiment: as above; assay type: cell-based; conditions: no dCF (0 uM)
Description: as §2

lymphocytes = conditions: cited from earlier work
[12] = drug 50 uM, listed as dAd (Acros)
[13] = drug 50 uM, listed as dAd (Sigma)
[14] = drug 100 uM, listed as dAd (Acros)
[15] = drug 100 uM, listed as dAd (Sigma)
[16] = drug 250 uM, listed as dAd (Acros)
[17] = drug 250 uM, listed as dAd (Sigma)
[18] = drug 1000 uM, listed as dAd (Acros)
[19] = drug 1000 uM, listed as dAd (Sigma)
[20] = dAd 10 μM alone (dCF 0), 2 days
[21] = dAd 20 μM alone (dCF 0), 2 days
[22] = dAd 50 μM alone (dCF 0), 2 days
[23] = dAd 100 μM alone (dCF 0), 2 days
[24] = dAd 150 μM alone (dCF 0), 2 days
[25] = dAd 200 μM alone (dCF 0), 2 days
[26] = dAd 250 μM alone (dCF 0), 2 days

In the case of Nc1ncnc2c1ncn2[C@H]1C[C@H](O)[C@@H](CO)O1 [dAd, 2′-deoxyadenosine], the “concentration toxic to U-937 cells on its own” value (U-937 cells [1]) is reported as 250 µM, the “Cytokine Secretion IL-6 pg/ml Mean of 3 Replicates” value (U-937 cells [2]; 23 hr) is reported as 4 pg/mL and the “IL-6 inhibition after Caspase-3 induction” value (U-937 cells [2]; 46 hours, compared to no drug+LPS) is reported as 55%. The “Cytokine Secretion IL-6 pg/ml Mean of 3 Replicates” value (U-937 cells [2]; 46 hr) was 4 pg/mL, the “concentration at which cell cycle arrest begins” value (U937 monocytoid cells [3]) was 75 µM and the “concentration at which apoptosis is induced” value (U937 monocytoid cells [3]; progressively more at 250 and 1000) was 100 µM. The “% FITC Shift” value (U937 monocytoid cells [3]; [12]) was 0.7%, the “% PI Shift” value (U937 monocytoid cells [3]; [12]) was 2.9% and the “% FITC Shift” value (U937 monocytoid cells [3]; [13]) was 1.5%. For the same compound, the “% PI Shift” value (U937 monocytoid cells [3]; [13]) was 3.2%, the “% FITC Shift” value (U937 monocytoid cells [3]; drug 75 uM) was 1.8% and the “% PI Shift” value (U937 monocytoid cells [3]; drug 75 uM, listed as dAd (Acros)) was 7.1%. The “% PI Shift” value (U937 monocytoid cells [3]; drug 75 uM, listed as dAd (Sigma)) was 8.8%, the “% FITC Shift” value (U937 monocytoid cells [3]; [14]) was 3.5% and the “% PI Shift” value (U937 monocytoid cells [3]; [14]) was 9.8%. For the same compound, the “% FITC Shift” value (U937 monocytoid cells [3]; [15]) was 9.0%, the “% PI Shift” value (U937 monocytoid cells [3]; [15]) was 12.1% and the “% FITC Shift” value (U937 monocytoid cells [3]; [16]) was 54.1%. The “% PI Shift” value (U937 monocytoid cells [3]; [16]) was 14.6%, the “% FITC Shift” value (U937 monocytoid cells [3]; [17]) was 65.8% and the “% PI Shift” value (U937 monocytoid cells [3]; [17]) was 12.0%. For the same compound, the “% FITC Shift” value (U937 monocytoid cells [3]; [18]) was 80.2%, the “% PI Shift” value (U937 monocytoid cells [3]; [18]) was 32.6% and the “% FITC Shift” value (U937 monocytoid cells [3]; [19]) was 79.2%. For the same compound, the “% PI Shift” value (U937 monocytoid cells [3]; [19]) was 29.5%, the “% PI Shift” value (U937 monocytoid cells [4]; 50 μM dAd added 0 hr after wash-out) was 1.4% and the “% PI Shift” value (U937 monocytoid cells [4]; 50 μM dAd added 6 hr after wash-out) was 1.3%. The “% PI Shift” value (U937 monocytoid cells [4]; 50 μM dAd added 24 hr after wash-out) was 1.1%, the “% PI Shift” value (U937 monocytoid cells [4]; 50 μM dAd added 48 hr after wash-out) was 2.0% and the “Cytokine Secretion IL-2 pg/ml Mean of 3 Replicates” value (Jurkat cells [5]; 23 hr, drug 500 μM) was 17 pg/mL. For the same compound, the IL-2 inhibition (Jurkat cells [5]; 46 hours, compared to no drug+PHA) was 61%, the “Cytokine Secretion IL-2 pg/ml Mean of 3 Replicates” value (Jurkat cells [5]; 46 hr, drug 500 μM) was 49 pg/mL and the IL-2 concentration (Jurkat cells [5]; Jurkat cells activated by PHA, 46 hours, drug 500 μM) was 49 pg/mL. The “concentrations toxic to monocytes and lymphocytes” value [6] was “greater than 100 μM”, the “concentration at which dAd itself induces apoptosis” value (U937 monocytoid cells [7]; U937 cells, no dCF) was 100 to 200 µM and the “concentrations at which dAd alone is toxic” value (U937 monocytoid cells [7]; absence of dCF, 2 days) was > 100 µM. For the same compound, the “% FITC Shift” value (U937 monocytoid cells [7]; dAd 1 μM alone (dCF 0), 2 days) was 1.2%, the “% PI Shift” value (U937 monocytoid cells [7]; dAd 1 μM alone (dCF 0), 2 days) was 1.1% and the “% FITC Shift” value (U937 monocytoid cells [7]; [20]) was 1.8%. For the same compound, the “% PI Shift” value (U937 monocytoid cells [7]; [20]) was 1.5%, the “% FITC Shift” value (U937 monocytoid cells [7]; [21]) was 1.7% and the “% PI Shift” value (U937 monocytoid cells [7]; [21]) was 1.8%. The “% FITC Shift” value (U937 monocytoid cells [7]; [22]) was 1.5%, the “% PI Shift” value (U937 monocytoid cells [7]; [22]) was 3.8% and the “% FITC Shift” value (U937 monocytoid cells [7]; [23]) was 33.7%. The “% PI Shift” value (U937 monocytoid cells [7]; [23]) was 15.9%, the “% FITC Shift” value (U937 monocytoid cells [7]; [24]) was 78.3% and the “% PI Shift” value (U937 monocytoid cells [7]; [24]) was 17.3%. For the same compound, the “% FITC Shift” value (U937 monocytoid cells [7]; [25]) was 62.6%, the “% PI Shift” value (U937 monocytoid cells [7]; [25]) was 19.7% and the “% FITC Shift” value (U937 monocytoid cells [7]; [26]) was 66.4%. The “% PI Shift” value (U937 monocytoid cells [7]; [26]) was 17.8%, the “Concentration in the skin assuming 7% penetration” value ([8]; topical concentration 0.00005%) was 0.14 µM and the “Concentration in the skin assuming 7% penetration” value ([8]; topical concentration 0.0005%) was 1.39 µM. The “Concentration in the skin assuming 7% penetration” value ([8]; topical concentration 0.005%) was 13.93 µM, the “Concentration in the skin assuming 7% penetration” value ([8]; topical concentration 0.01%) was 27.86 µM and the “Concentration in the skin assuming 7% penetration” value ([8]; topical concentration 0.05%) was 139.31 µM. The “Concentration in the skin assuming 7% penetration” value ([8]; topical concentration 0.1%) was 278.62 µM, the “Concentration in the skin assuming 7% penetration” value ([8]; topical concentration 0.5%) was 1393.09 µM and the “Concentration in the skin assuming 7% penetration” value ([8]; topical concentration 1%) was 2786.18 µM. The “Concentration in the skin assuming 7% penetration” value ([8]; topical concentration 3%) was 8358.54 µM, the “Concentration in the skin assuming 7% penetration” value ([8]; topical concentration 5%) was 13930.90 µM and the “Caspase-3 Induction % FITC Shift - Mean of 3 Replicates” value (shortened to “Caspase-3 Induction % FITC Shift”) (U-937 cells [9]; 23 hr) was 67%. For the same compound, the “Caspase-3 Induction % FITC Shift” value (U-937 cells [9]; 46 hr) was 43%, the “Caspase-3 Induction % FITC Shift” value (Jurkat cells [10]; 23 hr) was 73% and the “Caspase-3 Induction % FITC Shift” value (Jurkat cells [10]; 46 hr) was 92%. The “% FITC Shift” value (Jurkat T cells; dAd 10 uM 2 days) was 1.6%, the “% FITC Shift” value (Jurkat T cells; dAd 50 uM 2 days) was 4.2% and the “% FITC Shift” value (Jurkat T cells; dAd 250 uM 2 days) was 22.2%. For the same compound, the “% FITC Shift” value (U937 monocytoid cells [11]; dAd 10 uM 2 days) was 1.8%, the “% FITC Shift” value (U937 monocytoid cells [11]; dAd 50 uM 2 days) was 2.6% and the “% FITC Shift” value (U937 monocytoid cells [11]; dAd 250 uM 2 days) was 92%. For the same compound, the “potentiation of the growth inhibitory effect of dCF” value (lymphocytes) was “up to 1,000 fold”.
